Assay [1] has as its target human CMV DNA polymerase UL54 (Human cytomegalovirus (strain AD169) (HHV-5) (Human herpesvirus 5), UniProt P08546). The assay can be described thus: CMV polymerase biochemical assay (molecular beacon-based). An outline of the steps:
(§1)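 Readout was beacon fluorescence (ex 480, em 535 nm), used to derive IC50. Each dNTP was at 1.25 uM, with 200 nM primer and 100 nM beacon, after a 30-min RT inhibitor preincubation. Enzyme was 625 pM for HSV UL30 (20 min RT reaction) or 100 pM for CMV UL54 (60 min RT), both sf9-expressed MBP fusions, in pH 7.5 Tris buffer with MgCl2.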

The target in assay [2] is human HSV DNA polymerase UL30 (Human herpesvirus 1 (strain 17) (HHV-1) (Human herpes simplex virus 1), UniProt P04293). The assay can be described thus: HSV polymerase biochemical assay (molecular beacon-based). An outline of the steps:
as §1

The test system of assay [3] is Luciferase-encoding HCMV, AD169 strain. The assay can be described thus: CMV Luciferase assay (cellular herpesvirus replication). It is filed as cell-based. In outline:
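Neonatal human dermal fibroblasts were pretreated 1 h with compound (final 0.0159–50 μM or 0.00318–10 μM, 0.5% DMSO), then infected at MOI 1 with AD169 carrying pp28-promoter luciferase. After 72 h at 37 °C, Renilla-Glo luminescence normalized to no-virus and virus-only controls; EC50 by 4-parameter logistic model.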

[4] abbreviates: Human betaherpesvirus 5, AD169, read-out: CMV-Luc Cellular EC50.

Where two headings read alike, the source gives them in different places.

Turning to `CN1CCC(S(=O)(=O)C2(CN3CCn4c(ccc(C(=O)NCc5ccc(C#N)cc5)c4=O)C3=O)CC2)C1` (stereo not drawn) [Example 81-4], the IC50 in assay [1] was 23.3 nM; in assay [2] it was 474 nM. Besides, the EC50 in assay [3] (setting [4]) was determined as 1080 nM.

Turning to `CN1CCC(S(=O)(=O)C2(CN3CCn4c(ccc(C(=O)NCc5ccc(C#N)c(F)c5)c4=O)C3=O)CC2)C1` (stereo not drawn) [Example 81-2], the results for the IC50 in assay [1] and in assay [2] were 11.3 nM and 204 nM, respectively. Also, the EC50 in assay [3] (setting [4]) is 486 nM.

For `N#Cc1ccc(CNC(=O)c2ccc3n(c2=O)CCN(CC2(S(=O)(=O)CC4CC4)CC2)C3=O)cc1` [Example 107-2], the IC50 in assay [1] turned out to be 2.5 nM; in assay [2] it was 150 nM. Moreover, the EC50 in assay [3] (setting [4]) worked out at 200 nM.

As to `CS(=O)(=O)CCN1CCn2c(c(Br)cc(C(=O)NCc3ccc(Cl)cc3)c2=O)C1=O` [Example 117, 9-bromo-N-(4-chlorobenzyl)-2-(2-(methylsulfonyl)ethyl)-1,6-dioxo-1,3,4,6-tetrahydro-2H-pyrido[1,2-a]pyrazine-7-carboxamide], the IC50 in assay [1] amounted to 285 nM; in assay [2], 577 nM. Moreover, the EC50 in assay [3] (setting [4]) is 1440 nM.

Take `CN1CC(S(=O)(=O)C2(CN3CCn4c(ccc(C(=O)NCc5ccc(C#N)cc5)c4=O)C3=O)CC2)C1` [Example 20]: the figures for the IC50 in assay [1] and in assay [2] were 13.2 nM and 319 nM, respectively. Also, in assay [3] (setting [4]), the EC50 stood at 1500 nM.

Consider `O=C(NCc1ccc(Cl)cc1)c1ccc2n(c1=O)CCN(C1CCS(=O)(=O)C1)C2=O` (stereo not drawn) [Example 53-1], for which the IC50 in assay [1] amounted to 729 nM; in assay [2], 4440 nM. Besides, in assay [3] (setting [4]), the EC50 is 11200 nM.

As for `CC(C)(C(N)=O)S(=O)(=O)C1(CN2CCn3c(ccc(C(=O)NCc4ccc(Cl)cc4)c3=O)C2=O)CC1` [Example 177, 2-((1-((1-amino-2-methyl-1-oxopropan-2-yl)sulfonyl)cyclopropyl)methyl)-N-(4-chlorobenzyl)-1,6-dioxo-1,3,4,6-tetrahydro-2H-pyrido[1,2-a]pyrazine-7-carboxamide], the IC50 in assay [1] came to 1.5 nM; in assay [2] it was 18.1 nM. For the same compound, the EC50 in assay [3] (setting [4]) was found to be 12.4 nM.

Regarding `CC1(CS(=O)(=O)C2(CN3CCn4c(ccc(C(=O)NCc5ccc(C#N)c(F)c5)c4=O)C3=O)CC2)COC1` [Example 103-3], the values for the IC50 in assay [1] and in assay [2] were 10.8 nM and 170 nM, respectively. Also, the EC50 in assay [3] (setting [4]) came to 791 nM.

With `N#CC1(CS(=O)(=O)C2(CN3CCn4c(ccc(C(=O)NCc5ccc(Cl)cc5)c4=O)C3=O)CC2)CC1` [Example 110, N-(4-chlorobenzyl)-2-((1-(((1-cyanocyclopropyl)methyl)sulfonyl)cyclopropyl)methyl)-1,6-dioxo-1,3,4,6-tetrahydro-2H-pyrido pyrazine-7-carboxamide], the IC50 in assay [1] came to 1.9 nM; in assay [2] it was 33.5 nM. Besides, in assay [3] (setting [4]), the 50% effective concentration (EC50) came out at 81.7 nM.

Consider `CS(=O)(=O)N1CC(CN2CCn3c(ccc(C(=O)NCc4ccc(Cl)cc4)c3=O)C2=O)C1` [Example 65], for which the IC50 is 614 nM in assay [1] and 11500 nM in assay [2]. Further, the EC50 in assay [3] (setting [4]) worked out at 15100 nM.

As to `CN(C)S(=O)(=O)C1(CN2CCn3c(ccc(C(=O)NCc4ccc(Cl)cc4)c3=O)C2=O)CC1` [Example 90-1, N-(4-chlorobenzyl)-2-((1-(N,N-dimethylsulfamoyl)cyclopropyl)methyl)-1,6-dioxo-2,3,4,6-tetrahydro-1H-pyrido[1,2-a]pyrazine-7-carboxamide], the IC50 in assay [1] came to 0.4 nM; in assay [2], 12.3 nM. Besides, in assay [3] (setting [4]), the EC50 came to 13.4 nM.

For `CS(=O)(=O)C1(CN2CCn3c(ccc(C(=O)NCc4ccc(Cl)cc4)c3=O)C2=O)CCC1` [Example 49], the IC50 in assay [1] worked out at 41.8 nM; in assay [2], 2520 nM. Besides, the EC50 in assay [3] (read-out: CMV-Luc Cellular EC50) was found to be 2800 nM.

Turning to `N#Cc1ccc(CNC(=O)c2cc(F)c3n(c2=O)CCN(CC2(S(=O)(=O)C4CC4)CC2)C3=O)cc1F` [Example 162], the IC50 in assay [1] is 1.9 nM; in assay [2], 79.6 nM. In addition, the concentration giving a half-maximal response (EC50) in assay [3] (setting [4]) amounted to 41.3 nM.

As for `O=C(NCc1ccc(Cl)cc1)c1ccc2n(c1=O)CCN(CC1(N3CCCCC3=O)CC1)C2=O` [Example 202], the IC50 in assay [1] amounted to 305 nM; in assay [2], 6470 nM. In assay [3] (setting [4]), the EC50 worked out at 7650 nM.

(Values after patent publication US12466821B2 (Novartis AG, priority 2018, dated 2025).)
